{
  "source": "patent US20260297508A1",
  "about": "“MODULATORS OF PROTEIN SECRETION” (SANOFI, priority 2023, published 2026)",
  "key": {"[1]": {"system": "biotin-induced antibody release, U2OS clone #7 cells", "assay": "High-throughput RUSH screen: biotin-induced cytoplasmic GFP signal decay (antibody release), U2OS clone #7", "assay_type": "cell-based, human", "method": "FIGS. 4A-4C show the high-throughput screening of chemical compound libraries for the identification of modulators of protein secretion. […] U2OS clone #7 is plated in 384-well plates and incubated for 24 h before treatment with each compound of the Prestwick, ICCB Known Bioactives, or Autophagy Compound Library at 2 concentrations, low and high (with a 10-fold difference). […] The results of the Prestwick library screening at the low drug concentration are plotted. Brefeldin A was used as a positive control of the inhibition of secretion. The compounds causing a cytoplasmic GFP intensity below that observed for biotin-only treated cells are potential enhancers of protein secretion.\nU2OS cells were transfected with the streptavidin-KDEL plasmid using Lipofectamine 2000 (Thermo Fisher Scientific) and selected in medium supplemented with G418 (400 μg/mL, Gibco-Invitrogen) for 2 weeks. Limiting dilution in 96-well plates was used for single cell isolation from the selected pool. Clones were amplified and selected based on streptavidin immunofluorescence. Clone #BD6 showing the highest streptavidin expression was further expanded in medium supplemented with G418 (200 μg/mL) and transfected with the anti-PD-L1 IgG RUSH plasmid using Lipofectamine 2000 and selected in medium supplemented with G418 (200 μg/mL) and hygromycin (100 μg/mL, Santa Cruz Biotechnology) for 2 weeks. Limiting dilution in 96-well plates was used for single cell isolation from clone #BD6-derived selected pool. Clones were amplified and selected based on GFP fluorescence and clone #7 was selected for further characterization and screening campaigns.\nU2OS clone #7 cells were seeded in black 384-well imaging plates (Greiner bio one), 2,000 cells/well, and incubated for 24 h at 37° C. in a humidified incubator with 5% CO2. Cells were treated on the next day with the compounds from either the Prestwick library at […], the ICCB Known Bioactives library at 1/100^e or 1/1000^e, or the autophagy compound library at 10 μM or 1 μM for 4 h. […] Cells were then fixed as described above and processed for subsequent automated image acquisition using a robot-assisted IXM XL BioImager (Molecular Devices, Sunnyvale, CA, USA) equipped with a Sola light source (Lumencor, Beaverton, OR, USA), adapted excitation and emission filters (Semrock) a 16-bit monochrome sCMOS PCO.edge 5.5 camera (PCO, Kelheim, Germany). A 20× PlanAPO objective (Nikon, Tokyo, Japan) was used to acquire a minimum of 4 view fields in each well. The acquired images were processed using the open-access R software (https://www.r-project.org) with the help of freely available packages EBImage (available on the Bioconductor repository https://www.bioconductor.org), and RBioFormats (https://github.com/aoles/RBioFormats), and the custom packages MetaxpR (https://github.com/asauvat/MetaxpR) and MorphR (https://github.com/kroemerlab/MorphR). Nuclei were first detected using Hoechst 33342 signal and used as a marker to detect cytoplasmic areas based on GFP signal, allowing for the evaluation of cytoplasmic GFP intensity. Data were thereafter extracted and statistically evaluated using R (https://www.r-project.org). Data were normalized using negative and positive controls, reduced and transformed into a Z-score. The experiments were repeated manually at low scale with selected drugs to confirm their effects on secretion, in this second set of assays, U2OS clone #7 cells incubated with secretion inhibitors were fixed and stained with Hoechst as described above for imaging and viability determination based on cell counts.\nWe next sought to use clone #7 in screening campaigns for the identification of drugs capable of enhancing or inhibiting antibody secretion. […] Cell counting was facilitated by nuclear counterstaining with Hoechst 33324 in order to assess viability and distinguish drug effects on the secretion kinetics from direct cytotoxicity and select relevant drugs for further characterization. […]"}, "[2]": {"system": "D3/D2 receptor", "conditions": "cited from earlier work"}, "[3]": {"system": "D1 receptors", "conditions": "cited from earlier work"}, "[4]": {"system": "GFP-tagged RUSH antibody trafficking, U2OS clone #7 cells", "assay": "Time lapse / fluorescence microscopy of GFP-tagged antibody trafficking in clone #7", "assay_type": "cell-based, human", "from_the_text": "(§1) FIGS. 2A-2F show characterization of the anti-PD-L1 antibody RUSH system. […] Molecular mass standards (in kDa) are indicated on the left in panel FIG. 2D. The structures of the proteins detected by immunoblot are indicated based on the scheme shown in FIG. 1B and include antibody heavy and light chains, GFP, SBP, and a linker with a furin cleavage site. The truncated shape at the antibody C-terminus represents linker residues left after cleavage by furin. Results are representative of at least 3 independent experiments.\nU2OS clone #7 cells were seeded in black 96-well imaging plates (Greiner bio one, Kremsmünster, Austria). After 24 h, the medium was removed, cells were rinsed with 37° C. pre-heated PBS and fixed in PBS supplemented with 4% paraformaldehyde (PFA, Sigma) and 1 μg/mL Hoechst (Life Technologies, Carlsbad, CA, USA) for 20 min under agitation at room temperature (RT). Cells were rinsed with PBS before addition of a 5% FBS/0.3% Triton X-100/PBS permeabilizing solution for 30 min under agitation at RT. Cells were rinsed with PBS and incubated overnight under agitation at 4° C. with the primary antibody in 1% BSA/PBS. Cells were washed with PBS and incubated for 45 min under agitation at RT with the secondary antibody in 1% BSA/PBS. Finally, cells were washed, and processed for image acquisition using an IXM XL BioImager (Molecular Devices, Sunnyvale, CA)."}, "[5]": {"system": "RUSH antibody release and furin processing, U2OS clone #7 cells", "assay": "Western blot of cell lysates and concentrated supernatants of clone #7", "assay_type": "cell-based, human", "conditions": "40 μM biotin, 4 h; FIG. 2C", "from_the_text": "as §1\nU2OS clone #7 cells were seeded in T-175 flasks and kept for 24 h at 37° C. in a humidified incubator with 5% CO2. […] At the end of the incubation time, cells were harvested and lysed in RIPA buffer (Thermo Fisher Scientific) supplemented with protease and phosphatase inhibitors (Roche, Basel, Switzerland). Additionally, cell culture supernatants were collected and concentrated ~100-fold in Amicon 50 kDa filter unit (Sigma) according to the manufacturer's instructions. Cell lysate and concentrated supernatant protein concentrations were determined using the BCA™ protein assay kit (Thermo Fisher Scientific). […] The membranes were then washed 3 times for 5 min with 0.01% Tween-20/TBS and peroxidase activity was evaluated with Amersham ECL Primer Western Blotting Detection Reagent (GE Healthcare, Little Chalfont, UK) on ImageQuant™ LAS4000 (GE Healthcare)."}, "[6]": {"system": "CHO-K1 cells", "assay": "Flow cytometry binding to PD-L1neg parental CHO cells", "conditions": "FACS", "from_the_text": "(§2) FIGS. 3A-F show the characterization of the binding capacity of the anti-PD-L1 RUSH antibody released through the biotin-activated RUSH system (FIGS. 3A, 3C, and FIG. 3E) Schematic representation of the antibody binding to PD-L1^pos cells and detection by flow cytometry. […] Dark grey, binding to PD-L1^pos CHO cells (CHO-PDL1); light grey, binding to PD-L1^neg parental CHO cells (CHO-K1). Antibody binding is detected by means of an indirect immunofluorescence assay with a secondary anti-Fc APC conjugated or by direct measurement of GFP fluorescence.\n(§3) Human osteosarcoma U2OS cells obtained from the Kroemer lab were maintained at 37° C. in a humidified incubator with 5% CO2 in Dulbecco's Modified Eagle Medium (DMEM) supplemented with 10% Fetal Bovine Serum (FBS), 1% penicillin-streptomycin and 1% HEPES (Gibco, Carlsbad, CA). CHO-K1 (CCL-61) cells were obtained from the ATCC and cultured at 37° C. in a humidified incubator with 5% CO2 in Nutrient Mixture F-12 Ham's (Sigma, Saint-Louis, MO) supplemented with 10% FBS and 2 mM L-Glutamine (Gibco). PD-L1-expressing CHO cells were cultured in similar conditions in medium supplemented with 7.5 μg/mL puromycin (Gibco). The Prestwick, the BML-2840 ICCB Known Bioactives and the Autophagy Compounds libraries were purchased from Prestwick Chemicals (Illkirch, France), Enzo Life Sciences (Farmingdale, NY), and TargetMol (Boston, MA), respectively. […]"}, "[7]": {"system": "human PD-L1 (CHO-PDL1 cells)", "assay": "Flow cytometry binding to PD-L1-expressing CHO cells", "conditions": "FACS", "from_the_text": "as §2, §3"}},
  "data": [
    {"molecule": "CCCN(CCC)CCc1cccc2c1CC(=O)N2", "note": "[ropinirole, 4-[2-(dipropylamino)ethyl]-1,3-dihydroindol-2-one]", "values": [
      {"measurement": "secretion activator at both low and high concentration (consistently decreased fluorescent signal, among 20 best activators)", "setting": "[1]; Prestwick library, low and high concentration, 4 h compound, then 40 μM biotin 1 h", "value": "fulfilled these criteria"},
      {"measurement": "decrease of intracytoplasmic GFP fluorescence signal (biotin-stimulated RUSH system)", "setting": "[1]; screening campaigns, summary", "value": "consistently decreased intracytoplasmic GFP fluorescence"},
      {"measurement": "D3/D2 receptor agonism", "setting": "[2]", "value": "potent D3/D2 receptor agonist"},
      {"measurement": "affinity for D1 receptors", "setting": "[3]", "value": "no affinity"}
    ]},
    {"molecule": "O=C(O)CCCC[C@@H]1SC[C@@H]2NC(=O)N[C@@H]21", "note": "[biotin]", "values": [
      {"measurement": "time of relocation of the GFP signal to the Golgi apparatus", "setting": "[4]; 40 μM biotin", "value": "40 to 120", "unit": "min"},
      {"measurement": "time to complete cytoplasmic GFP signal decay", "setting": "[4]; 40 μM biotin", "value": "≤ 4", "unit": "h"},
      {"measurement": "GFP/streptavidin co-localization", "setting": "[4]; 4 h after addition of biotin, FIG. 2B", "value": "lost 4 h after addition of biotin"},
      {"measurement": "Pearson's correlation coefficient (PCC), hook / GFP-tagged antibody colocalization", "setting": "[4]; in the presence of biotin, 4 h, FIG. 2B", "value": 0.29},
      {"measurement": "Western blot signal intensity in cell lysate", "setting": "[5]", "value": "intensity of the signal was lower"}
    ]},
    {"molecule": "anti-PD-L1: reference anti-human PD-L1 antibody produced from published Atezolizumab heavy and light chains sequences", "values": [
      {"measurement": "binding to CHO-K1 cells", "setting": "[6]", "value": "not PD-L1^neg CHO (CHO-K1) cells"},
      {"measurement": "binding to CHO-PDL1 cells", "setting": "[7]", "value": "binding to PD-L1^pos (CHO-PDL1)"}
    ]}
  ]
}
